As usually defined, the pEC50 is the EC50 on a negative log10 scale, so that one unit is a factor of ten.

Assay [1] deals with T1, human GLP-1 receptor (Homo sapiens, UniProt P43220).
T1 construct: expressed in transfected cells
Nature of the assay: GLP-1 receptor potency assay (cAMP AlphaScreen, HEK293 cells stably expressing GLP-1R). Type of assay: cell-based. The conditions noted are these: cAMP response, HEK293 cells expressing human GLP-1R; read-out: EC50 GLP-1. The procedure, abridged:
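cAMP accumulation was quantified by AlphaScreen in G418-selected HEK293 cells stably transfected with human GLP-1R cDNA. Concentration-response data were normalized between vehicle and positive control. EC50 and maximal response came from 4PL curve fitting.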

The target of assay [2] is T2, human GLP-2 receptor (Homo sapiens, UniProt O95838, D470N).
T2 sequence (O95838 1-553 D470N): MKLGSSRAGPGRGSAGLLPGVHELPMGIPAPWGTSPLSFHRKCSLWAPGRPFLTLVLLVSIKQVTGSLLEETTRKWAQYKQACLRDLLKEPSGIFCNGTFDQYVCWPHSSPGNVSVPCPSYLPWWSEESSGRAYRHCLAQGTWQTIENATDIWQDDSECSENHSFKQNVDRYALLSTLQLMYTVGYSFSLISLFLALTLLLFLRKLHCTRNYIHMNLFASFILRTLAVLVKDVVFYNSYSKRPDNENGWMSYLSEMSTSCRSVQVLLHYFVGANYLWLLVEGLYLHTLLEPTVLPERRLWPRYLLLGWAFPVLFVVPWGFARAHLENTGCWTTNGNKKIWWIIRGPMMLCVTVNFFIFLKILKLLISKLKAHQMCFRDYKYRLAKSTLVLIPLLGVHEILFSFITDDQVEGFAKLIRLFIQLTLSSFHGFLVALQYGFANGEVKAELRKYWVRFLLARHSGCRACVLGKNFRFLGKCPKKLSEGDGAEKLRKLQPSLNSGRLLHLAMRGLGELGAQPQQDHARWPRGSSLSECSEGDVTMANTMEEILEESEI
Put plainly: GLP-2 receptor potency assay (cAMP AlphaScreen, HEK293 cells stably expressing GLP-2R). It is filed as cell-based. The settings on record: cAMP response, HEK293 cells expressing human GLP-2R. In a few lines: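 EC50 and maximal response were fitted with a 4PL model after normalization to positive control and vehicle. cAMP accumulation was quantified by AlphaScreen in a stable HEK293 clone transfected with human GLP-2 receptor.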
For orientation: Alpha assays give light when donor and acceptor beads are brought close together.

pEC50: −log10 of the molar value. Square brackets hold non-standard residues; d marks the D form. Peptide text beside a SMILES is read from it. Aib = CC(C)(N)C(=O)O

T1 sequence (P43220 24-463): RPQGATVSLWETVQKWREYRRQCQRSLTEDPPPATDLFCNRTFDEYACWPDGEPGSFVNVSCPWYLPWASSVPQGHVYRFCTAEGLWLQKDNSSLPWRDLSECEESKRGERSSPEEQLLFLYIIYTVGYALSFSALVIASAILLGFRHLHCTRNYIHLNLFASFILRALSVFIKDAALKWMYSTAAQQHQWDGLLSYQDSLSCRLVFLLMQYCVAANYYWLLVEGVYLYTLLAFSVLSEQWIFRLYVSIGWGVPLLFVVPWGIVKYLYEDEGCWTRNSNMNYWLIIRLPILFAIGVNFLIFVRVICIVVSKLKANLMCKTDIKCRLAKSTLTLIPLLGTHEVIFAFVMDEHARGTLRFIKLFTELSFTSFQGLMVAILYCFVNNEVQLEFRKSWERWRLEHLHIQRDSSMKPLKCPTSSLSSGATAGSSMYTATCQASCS

Consider `CC[C@H](C)[C@H](NC(=O)[C@H](Cc1ccccc1)NC(=O)[C@H](CC(=O)O)NC(=O)[C@H](CCCNC(=N)N)NC(=O)[C@H](C)NC(=O)[C@H](C)NC(=O)[C@H](CCC(N)=O)NC(=O)[C@H](CCC(=O)O)NC(=O)[C@H](CC(=O)O)NC(=O)[C@H](CC(C)C)NC(=O)[C@@H](NC(=O)[C@@H](NC(=O)[C@H](C)NC(=O)[C@H](CC(C)C)NC(=O)[C@H](CCC(=O)O)NC(=O)[C@H](CO)NC(=O)[C@@H](NC(=O)[C@H](Cc1ccccc1)NC(=O)[C@@H](NC(=O)CNC(=O)[C@H](CCC(=O)O)NC(=O)C(C)(C)NC(=O)[C@@H](N)Cc1c[nH]cn1)[C@@H](C)O)[C@@H](C)O)[C@@H](C)O)[C@@H](C)CC)C(=O)N[C@@H](C)C(=O)N[C@@H](Cc1c[nH]c2ccccc12)C(=O)N[C@@H](CC(C)C)C(=O)N[C@@H](Cc1c[nH]cn1)C(=O)N[C@@H](CCC(N)=O)C(=O)N[C@@H](Cc1c[nH]cn1)C(=O)N[C@@H](CCCCN)C(=O)N[C@H](C(=O)N[C@H](C(=O)N[C@@H](CC(=O)O)C(=O)O)[C@@H](C)O)[C@@H](C)CC` [Compound 21] (H-H[Aib]EGTFTSELATILDEQAARDFIAWLHQHKITD-OH), for which the pEC50 in assay [1] is 10.31; in assay [2], 9.96.

For `CC[C@H](C)[C@H](NC(=O)[C@H](Cc1ccccc1)NC(=O)[C@H](CC(=O)O)NC(=O)[C@H](CCCNC(=N)N)NC(=O)[C@H](C)NC(=O)[C@H](C)NC(=O)[C@H](CCC(N)=O)NC(=O)[C@H](CCC(=O)O)NC(=O)[C@H](CC(=O)O)NC(=O)[C@H](CC(C)C)NC(=O)[C@@H](NC(=O)[C@@H](NC(=O)[C@H](C)NC(=O)[C@H](CC(C)C)NC(=O)[C@H](CCC(=O)O)NC(=O)[C@H](CO)NC(=O)[C@@H](NC(=O)[C@H](Cc1ccccc1)NC(=O)[C@H](CO)NC(=O)CNC(=O)[C@H](CCC(=O)O)NC(=O)C(C)(C)NC(=O)[C@@H](N)Cc1c[nH]cn1)[C@@H](C)O)[C@@H](C)O)[C@@H](C)CC)C(=O)N[C@@H](C)C(=O)N[C@@H](Cc1c[nH]c2ccccc12)C(=O)N[C@@H](CC(C)C)C(=O)N[C@@H](Cc1ccc(O)cc1)C(=O)N[C@@H](CCC(=O)O)C(=O)N[C@@H](Cc1c[nH]cn1)C(=O)N[C@@H](CCCCN)C(=O)N[C@H](C(=O)N[C@H](C(=O)N[C@@H](CC(=O)O)C(=O)O)[C@@H](C)O)[C@@H](C)CC` [Compound 23] (H-H[Aib]EGSFTSELATILDEQAARDFIAWLYEHKITD-OH), the pEC50 in assay [1] is 9.92; in assay [2], 10.47.

For the compound `CC[C@H](C)[C@H](NC(=O)[C@H](Cc1ccccc1)NC(=O)[C@H](CC(=O)O)NC(=O)[C@H](CCCNC(=N)N)NC(=O)[C@H](C)NC(=O)[C@H](C)NC(=O)[C@H](CCC(N)=O)NC(=O)[C@H](CCC(=O)O)NC(=O)[C@H](CC(=O)O)NC(=O)[C@H](CC(C)C)NC(=O)[C@@H](NC(=O)[C@@H](NC(=O)[C@H](C)NC(=O)[C@H](CC(C)C)NC(=O)[C@H](CCC(=O)O)NC(=O)[C@H](CO)NC(=O)[C@@H](NC(=O)[C@H](Cc1ccccc1)NC(=O)[C@H](CO)NC(=O)CNC(=O)[C@H](CCC(=O)O)NC(=O)C(C)(C)NC(=O)[C@@H](N)Cc1c[nH]cn1)[C@@H](C)O)[C@@H](C)O)[C@@H](C)CC)C(=O)N[C@@H](C)C(=O)N[C@@H](Cc1c[nH]c2ccccc12)C(=O)N[C@@H](CC(C)C)C(=O)N[C@@H](CCC(N)=O)C(=O)N[C@@H](C)C(=O)N[C@@H](Cc1c[nH]cn1)C(=O)N[C@@H](CCCCN)C(=O)N[C@H](C(=O)N[C@H](C(=O)N[C@@H](CC(=O)O)C(=O)O)[C@@H](C)O)[C@@H](C)CC` [Compound 24] (H-H[Aib]EGSFTSELATILDEQAARDFIAWLQAHKITD-OH), the negative logarithm of the EC50 (pEC50) in assay [1] is 10.38; in assay [2], 10.31.

As to `CC[C@H](C)[C@H](NC(=O)[C@H](CC(C)C)NC(=O)[C@H](Cc1c[nH]c2ccccc12)NC(=O)[C@H](C)NC(=O)[C@@H](NC(=O)[C@H](Cc1ccccc1)NC(=O)[C@H](CC(=O)O)NC(=O)[C@H](CCCNC(=N)N)NC(=O)[C@H](C)NC(=O)[C@H](C)NC(=O)[C@H](CCC(N)=O)NC(=O)[C@H](CCC(=O)O)NC(=O)[C@H](CC(=O)O)NC(=O)[C@H](CC(C)C)NC(=O)[C@@H](NC(=O)[C@@H](NC(=O)[C@H](C)NC(=O)[C@H](CC(C)C)NC(=O)[C@H](CCC(=O)O)NC(=O)[C@H](CO)NC(=O)[C@@H](NC(=O)[C@H](Cc1ccccc1)NC(=O)[C@H](CO)NC(=O)CNC(=O)[C@H](CCC(=O)O)NC(=O)C(C)(C)NC(=O)[C@@H](N)Cc1c[nH]cn1)[C@@H](C)O)[C@@H](C)O)[C@@H](C)CC)[C@@H](C)CC)C(=O)N[C@@H](C)C(=O)N[C@@H](CCC(N)=O)C(=O)N[C@@H](CCCCN)C(=O)N[C@H](C(=O)N[C@H](C(=O)N[C@@H](CC(=O)O)C(=O)O)[C@@H](C)O)[C@@H](C)CC` [Compound 25] (H-H[Aib]EGSFTSELATILDEQAARDFIAWLIAQKITD-OH), the pEC50 is 11.10 in assay [1] and 10.21 in assay [2].

As for `CC[C@H](C)[C@H](NC(=O)[C@H](Cc1ccccc1)NC(=O)[C@H](CC(=O)O)NC(=O)[C@H](CCCNC(=N)N)NC(=O)[C@H](C)NC(=O)[C@H](C)NC(=O)[C@H](CCC(N)=O)NC(=O)[C@H](CCC(=O)O)NC(=O)[C@H](CC(=O)O)NC(=O)[C@H](CC(C)C)NC(=O)[C@@H](NC(=O)[C@@H](NC(=O)[C@H](C)NC(=O)[C@H](CC(C)C)NC(=O)[C@H](CCC(=O)O)NC(=O)[C@H](CO)NC(=O)[C@@H](NC(=O)[C@H](Cc1ccccc1)NC(=O)[C@H](CO)NC(=O)CNC(=O)[C@H](CCC(=O)O)NC(=O)C(C)(C)NC(=O)[C@@H](N)Cc1c[nH]cn1)[C@@H](C)O)[C@@H](C)O)[C@@H](C)CC)C(=O)N[C@@H](C)C(=O)N[C@@H](Cc1c[nH]c2ccccc12)C(=O)N[C@@H](CC(C)C)C(=O)N[C@@H](Cc1ccc(O)cc1)C(=O)N[C@@H](C)C(=O)N[C@@H](Cc1c[nH]cn1)C(=O)N[C@@H](CCCCN)C(=O)N[C@H](C(=O)N[C@H](C(=O)N[C@@H](CC(=O)O)C(=O)O)[C@@H](C)O)[C@@H](C)CC` [Compound 28] (H-H[Aib]EGSFTSELATILDEQAARDFIAWLYAHKITD-OH), the pEC50 in assay [1] was 9.96; in assay [2], 10.62.

Turning to `CC[C@H](C)[C@H](NC(=O)[C@H](Cc1ccccc1)NC(=O)[C@H](CC(=O)O)NC(=O)[C@H](CCCNC(=N)N)NC(=O)[C@H](C)NC(=O)[C@H](C)NC(=O)[C@H](CCC(N)=O)NC(=O)[C@H](CCC(=O)O)NC(=O)[C@H](CC(=O)O)NC(=O)[C@H](CC(C)C)NC(=O)[C@@H](NC(=O)[C@@H](NC(=O)[C@H](C)NC(=O)[C@H](CC(C)C)NC(=O)[C@H](CCC(=O)O)NC(=O)[C@H](CC(=O)O)NC(=O)[C@@H](NC(=O)[C@H](Cc1ccccc1)NC(=O)[C@@H](NC(=O)CNC(=O)[C@H](CCC(=O)O)NC(=O)C(C)(C)NC(=O)[C@@H](N)Cc1c[nH]cn1)[C@@H](C)O)[C@@H](C)O)[C@@H](C)O)[C@@H](C)CC)C(=O)N[C@@H](C)C(=O)N[C@@H](Cc1c[nH]c2ccccc12)C(=O)N[C@@H](CC(C)C)C(=O)N[C@@H](CCC(N)=O)C(=O)N[C@@H](C)C(=O)N[C@@H](CCC(N)=O)C(=O)N[C@@H](CCCCN)C(=O)N[C@H](C(=O)N[C@H](C(=O)N[C@@H](CC(=O)O)C(=O)O)[C@@H](C)O)[C@@H](C)CC` [Compound 29] (H-H[Aib]EGTFTDELATILDEQAARDFIAWLQAQKITD-OH), the pEC50 in assay [1] was 10.36; in assay [2], 9.96.

For the compound `CC[C@H](C)[C@H](NC(=O)[C@H](CC(C)C)NC(=O)[C@H](Cc1c[nH]c2ccccc12)NC(=O)[C@H](C)NC(=O)[C@@H](NC(=O)[C@H](Cc1ccccc1)NC(=O)[C@H](CC(=O)O)NC(=O)[C@H](CCCNC(=N)N)NC(=O)[C@H](C)NC(=O)[C@H](C)NC(=O)[C@H](CCCCN)NC(=O)CNC(=O)[C@H](CC(=O)O)NC(=O)[C@H](CC(C)C)NC(=O)[C@@H](NC(=O)[C@@H](NC(=O)[C@H](C)NC(=O)[C@H](CC(C)C)NC(=O)[C@H](CCC(=O)O)NC(=O)[C@H](CO)NC(=O)[C@@H](NC(=O)[C@H](Cc1ccccc1)NC(=O)[C@H](CO)NC(=O)CNC(=O)[C@H](CCC(=O)O)NC(=O)C(C)(C)NC(=O)[C@@H](N)Cc1c[nH]cn1)[C@@H](C)O)[C@@H](C)O)[C@@H](C)CC)[C@@H](C)CC)C(=O)N[C@@H](C)C(=O)N[C@@H](Cc1c[nH]cn1)C(=O)N[C@@H](CCCCN)C(=O)N[C@H](C(=O)N[C@H](C(=O)N[C@@H](CC(=O)O)C(=O)O)[C@@H](C)O)[C@@H](C)CC` [Compound 31] (H-H[Aib]EGSFTSELATILDGKAARDFIAWLIAHKITD-OH), the negative-log EC50 (pEC50) in assay [1] was 10.70; in assay [2], 10.11.
